# Source: ChEMBL document CHEMBL4431295 (Medchemcomm, 2016)
# Calls of active or inactive are those of the source. No cut-off for these calls is given here.
# Experiments:
# [1] = system: SK-N-SH; experiment: Induction of apoptosis in human SK-N-SH cells assessed as cell rounding at 5 to 10 uM after 24 hrs by Hoechst 33258 staining based fluorescence microscopic analysis; format: functional
# [2] = system: SK-N-SH; experiment: Cell cycle arrest in human SK-N-SH cells assessed as G1/G0 phase accumulation at 10 uM after 24 hrs by FITC/propidium iodide staining based flow cytometry (reference value: 57.72%); format: functional
# [3] = system: SK-N-SH; experiment: Induction of apoptosis in human SK-N-SH cells assessed as necrotic cells at 10 uM by Annexin V-FITC/propidium iodide staining based flow cytometry (reference value: 0.3%); format: functional
# [4] = system: SK-N-SH; experiment: Cell cycle arrest in human SK-N-SH cells assessed as G1/G0 phase accumulation after 24 hrs by FITC/propidium iodide staining based flow cytometry; format: functional
# [5] = system: GES1; experiment: Cytotoxicity against human GES-1 cells assessed as cell growth inhibition after 72 hrs by MTT assay; format: cell-based; settings: GES1, 72 h
# [6] = system: SK-N-SH; experiment: Induction of apoptosis in human SK-N-SH cells assessed as necrotic cells at 5 uM by Annexin V-FITC/propidium iodide staining based flow cytometry (reference value: 0.3%); format: functional
# [7] = system: SK-N-SH; experiment: Induction of apoptosis in human SK-N-SH cells assessed as early apoptotic cells at 2.5 uM by Annexin V-FITC/propidium iodide staining based flow cytometry (reference value: 7.1%); format: functional
# [8] = system: SK-N-SH; experiment: Induction of apoptosis in human SK-N-SH cells assessed as chromatin shrinkage at 5 to 10 uM after 24 hrs by Hoechst 33258 staining based fluorescence microscopic analysis; format: functional, cell-based
# [9] = system: SK-N-SH; experiment: Induction of apoptosis in human SK-N-SH cells assessed as late apoptotic cells at 1.25 uM by Annexin V-FITC/propidium iodide staining based flow cytometry (reference value: 1.7%); format: functional
# [10] = system: MGC-803; experiment: Antiproliferative activity against human MGC803 cells after 72 hrs by MTT assay; format: functional, cell-based; settings: MGC-803, 72 h
# [11] = system: SK-N-SH; experiment: Induction of apoptosis in human SK-N-SH cells assessed as necrotic cells at 1.25 uM by Annexin V-FITC/propidium iodide staining based flow cytometry (reference value: 0.3%); format: functional
# [12] = system: SK-N-SH; experiment: Induction of apoptosis in human SK-N-SH cells assessed as formation of apoptotic bodies at 5 to 10 uM after 24 hrs by Hoechst 33258 staining based fluorescence microscopic analysis; format: functional, cell-based
# [13] = system: SK-N-SH; experiment: Cell cycle arrest in human SK-N-SH cells assessed as S phase accumulation at 2.5 uM after 24 hrs by FITC/propidium iodide staining based flow cytometry (reference value: 37.4%); format: functional
# [14] = system: SK-N-SH; experiment: Induction of apoptosis in human SK-N-SH cells assessed as increase in caspase-3 expression at 5 to 10 uM after 24 hrs by Western blot analysis; format: functional, cell-based
# [15] = system: SK-N-SH; experiment: Induction of apoptosis in human SK-N-SH cells assessed as early apoptotic cells at 10 uM by Annexin V-FITC/propidium iodide staining based flow cytometry (reference value: 7.1%); format: functional
# [16] = system: SK-N-SH; experiment: Induction of apoptosis in human SK-N-SH cells assessed as late apoptotic cells at 10 uM by Annexin V-FITC/propidium iodide staining based flow cytometry (reference value: 1.7%); format: functional
# [17] = system: SK-N-SH; experiment: Cell cycle arrest in human SK-N-SH cells assessed as G2/M phase accumulation at 2.5 uM after 24 hrs by FITC/propidium iodide staining based flow cytometry (reference value: 6.03%); format: functional
# [18] = system: SK-N-SH; experiment: Cell cycle arrest in human SK-N-SH cells assessed as S phase accumulation at 10 uM after 24 hrs by FITC/propidium iodide staining based flow cytometry (reference value: 37.4%); format: functional
# [19] = system: SK-N-SH; experiment: Cell cycle arrest in human SK-N-SH cells assessed as G1/G0 phase accumulation at 2.5 uM after 24 hrs by FITC/propidium iodide staining based flow cytometry (reference value: 57.72%); format: functional
# [20] = system: SK-N-SH; experiment: Cell cycle arrest in human SK-N-SH cells assessed as S phase accumulation at 5 uM after 24 hrs by FITC/propidium iodide staining based flow cytometry (reference value: 37.4%); format: functional
# [21] = system: SK-N-SH; experiment: Induction of apoptosis in human SK-N-SH cells assessed as live cells at 5 uM by Annexin V-FITC/propidium iodide staining based flow cytometry (reference value: 90.9%); format: functional
# [22] = system: SK-N-SH; experiment: Cell cycle arrest in human SK-N-SH cells assessed as G2/M phase accumulation at 5 uM after 24 hrs by FITC/propidium iodide staining based flow cytometry (reference value: 6.03%); format: functional
# [23] = system: SK-N-SH; experiment: Induction of apoptosis in human SK-N-SH cells assessed as late apoptotic cells at 20 uM by Annexin V-FITC/propidium iodide staining based flow cytometry (reference value: 1.7%); format: functional
# [24] = system: SK-N-SH; experiment: Induction of apoptosis in human SK-N-SH cells assessed as early apoptotic cells at 1.25 uM by Annexin V-FITC/propidium iodide staining based flow cytometry (reference value: 7.1%); format: functional
# [25] = system: SK-N-SH; experiment: Induction of apoptosis in human SK-N-SH cells assessed as live cells at 10 uM by Annexin V-FITC/propidium iodide staining based flow cytometry (reference value: 90.9%); format: functional
# [26] = system: SK-N-SH; experiment: Induction of apoptosis in human SK-N-SH cells assessed as early apoptotic cells at 5 uM by Annexin V-FITC/propidium iodide staining based flow cytometry (reference value: 7.1%); format: functional
# [27] = system: HepG2; experiment: Antiproliferative activity against human HepG2 cells after 72 hrs by MTT assay; format: functional, cell-based; settings: HepG2, 72 h
# [28] = system: SK-N-SH; experiment: Induction of apoptosis in human SK-N-SH cells assessed as late apoptotic cells at 2.5 uM by Annexin V-FITC/propidium iodide staining based flow cytometry (reference value: 1.7%); format: functional
# [29] = system: SK-N-SH; experiment: Induction of apoptosis in human SK-N-SH cells assessed as late apoptotic cells at 5 uM by Annexin V-FITC/propidium iodide staining based flow cytometry (reference value: 1.7%); format: functional
# [30] = system: SK-N-SH; experiment: Induction of apoptosis in human SK-N-SH cells assessed as live cells at 1.25 uM by Annexin V-FITC/propidium iodide staining based flow cytometry (reference value: 90.9%); format: functional
# [31] = system: SK-N-SH; experiment: Cell cycle arrest in human SK-N-SH cells assessed as G2/M phase accumulation at 10 uM after 24 hrs by FITC/propidium iodide staining based flow cytometry (reference value: 6.03%); format: functional
# [32] = system: SK-N-SH; experiment: Induction of apoptosis in human SK-N-SH cells assessed as decrease in pro-caspase-3 expression at 5 to 10 uM after 24 hrs by Western blot analysis; format: functional, cell-based
# [33] = system: SK-N-SH; experiment: Induction of apoptosis in human SK-N-SH cells assessed as necrotic cells at 2.5 uM by Annexin V-FITC/propidium iodide staining based flow cytometry (reference value: 0.3%); format: functional
# [34] = system: SK-N-SH; experiment: Induction of apoptosis in human SK-N-SH cells assessed as increase in p53 expression at 5 to 10 uM after 24 hrs by Western blot analysis; format: functional, cell-based
# [35] = system: SK-N-SH; experiment: Induction of apoptosis in human SK-N-SH cells assessed as live cells at 20 uM by Annexin V-FITC/propidium iodide staining based flow cytometry (reference value: 90.9%); format: functional
# [36] = system: SK-N-SH; experiment: Induction of apoptosis in human SK-N-SH cells assessed as necrotic cells at 20 uM by Annexin V-FITC/propidium iodide staining based flow cytometry (reference value: 0.3%); format: functional
# [37] = system: SK-N-SH; experiment: Induction of apoptosis in human SK-N-SH cells assessed as live cells at 2.5 uM by Annexin V-FITC/propidium iodide staining based flow cytometry (reference value: 90.9%); format: functional
# [38] = system: SK-N-SH; experiment: Cell cycle arrest in human SK-N-SH cells assessed as G1/G0 phase accumulation at 5 uM after 24 hrs by FITC/propidium iodide staining based flow cytometry (reference value: 57.72%); format: functional
# [39] = system: SK-N-SH; experiment: Antiproliferative activity against human SK-N-SH cells after 72 hrs by MTT assay; format: functional, cell-based
# [40] = system: SK-N-SH; experiment: Induction of apoptosis in human SK-N-SH cells assessed as early apoptotic cells at 20 uM by Annexin V-FITC/propidium iodide staining based flow cytometry (reference value: 7.1%); format: functional
smiles,measurement,setting,value
COc1cccc(Cn2cc(CNc3ccc(C(=O)/C=C/c4cccnc4)cc3)nn2)c1,Activity,[1],Active
same,Activity,[2],81.8%
same,Activity,[3],0.5%
same,Activity,[4],Dose-dependent effect
same,IC50,[5],31100 nM
same,Activity,[6],0.8%
same,Activity,[7],5.8%
same,Activity,[8],Active
same,Activity,[9],1.2%
same,IC50,[10],2730 nM
same,Activity,[11],0.3%
same,Activity,[12],Active
same,Activity,[13],19.11%
same,Activity,[14],Active
same,Activity,[15],31.9%
same,Activity,[16],18.8%
same,Activity,[17],18.71%
same,Activity,[18],10.34%
same,Activity,[19],67.06%
same,Activity,[20],15.65%
same,Activity,[21],87.1%
same,Activity,[22],14.2%
same,Activity,[23],57.7%
same,Activity,[24],5.7%
same,Activity,[25],48.8%
same,Activity,[26],9.6%
same,IC50,[27],2210 nM
same,Activity,[28],2.1%
same,Activity,[29],2.5%
same,Activity,[30],92.9%
same,Activity,[31],7.17%
same,Activity,[32],Active
same,Activity,[33],0.7%
same,Activity,[34],Active
same,Activity,[35],1%
same,Activity,[36],1.6%
same,Activity,[37],91.4%
same,Activity,[38],71.27%
same,IC50,[39],1530 nM
same,Activity,[40],39.7%
